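Five concentrations, 48 hours, 96-well plates. Abbreviation: GI50, concentration required for 50% inhibition of growth.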 Active and inactive are the calls of the source. Rule as the data show it: active = GI50 up to about 1.1 µM and inactive = higher.
Key:
Test in all cases: NCI tumour cell line growth inhibition, 48 h
786-0 = test system: 786-0
A498 = test system: A498
A549 = test system: A549
ACHN = test system: ACHN
BT-549 = test system: BT-549
CAKI-1 = test system: CAKI-1
CCRF-CEM = test system: CCRF-CEM
COLO 205 = test system: COLO 205
DU-145 = test system: DU-145
EKVX = test system: EKVX
HCC 2998 = test system: HCC 2998
HCT-116 = test system: HCT-116
HCT-15 = test system: HCT-15
HL-60 = test system: HL-60
HOP-62 = test system: HOP-62
HOP-92 = test system: HOP-92
HT-29 = test system: HT-29
Hs-578T = test system: Hs-578T
IGROV-1 = test system: IGROV-1
K562 = test system: K562
KM12 = test system: KM12
M14 = test system: M14
MCF7 = test system: MCF7
MDA-MB-231 = test system: MDA-MB-231
MDA-MB-435 = test system: MDA-MB-435
MDA-N = test system: MDA-N
MOLT-4 = test system: MOLT-4
Malme-3M = test system: Malme-3M
NCI-H226 = test system: NCI-H226
NCI-H23 = test system: NCI-H23
NCI-H460 = test system: NCI-H460
NCI/ADR-RES = test system: NCI/ADR-RES
OVCAR-3 = test system: OVCAR-3
OVCAR-4 = test system: OVCAR-4
OVCAR-5 = test system: OVCAR-5
OVCAR-8 = test system: OVCAR-8
PC-3 = test system: PC-3
RPMI-8226 = test system: RPMI-8226
RXF 393 = test system: RXF 393
SF-268 = test system: SF-268
SF-295 = test system: SF-295
SF-539 = test system: SF-539
SK-MEL-28 = test system: SK-MEL-28
SK-MEL-2 = test system: SK-MEL-2
SK-MEL-5 = test system: SK-MEL-5
SK-OV-3 = test system: SK-OV-3
SN12C = test system: SN12C
SNB-19 = test system: SNB-19
SR = test system: SR
TK-10 = test system: TK-10
U-251 = test system: U-251
UACC-257 = test system: UACC-257
UACC-62 = test system: UACC-62
UO-31 = test system: UO-31
LOX IMVI = test system: LOX IMVI
NCI-H522 = test system: NCI-H522
SNB-75 = test system: SNB-75
SW-620 = test system: SW-620
T47D = test system: T47D

Cn1c(=O)c2c(nc(-n3nc(-c4ccc(Cl)cc4)cc3N)n2C)n(C)c1=O
GI50 (786-0): 6.9 µM (inactive)
GI50 (A498): > 100 µM (inactive)
GI50 (A549): > 100 µM (inactive)
GI50 (ACHN): > 100 µM (inactive)
GI50 (BT-549): 44.5 µM (inactive)
GI50 (CAKI-1): > 100 µM (inactive)
GI50 (CCRF-CEM): > 100 µM (inactive)
GI50 (COLO 205): > 100 µM (inactive)
GI50 (DU-145): > 100 µM (inactive)
GI50 (EKVX): > 100 µM (inactive)
GI50 (HCC 2998): > 100 µM (inactive)
GI50 (HCT-116): 19.1 µM (inactive)
GI50 (HCT-15): > 100 µM
GI50 (HL-60): > 100 µM (inactive)
GI50 (HOP-62): 10.5 µM (inactive)
GI50 (HOP-92): > 100 µM (inactive)
GI50 (HT-29): > 100 µM (inactive)
GI50 (Hs-578T): 22.4 µM (inactive)
GI50 (IGROV-1): > 100 µM (inactive)
GI50 (K562): 67.6 µM (inactive)
GI50 (KM12): > 100 µM (inactive)
GI50 (M14): > 100 µM (inactive)
GI50 (MCF7): 68.4 µM (inactive)
GI50 (MDA-MB-231): > 100 µM (inactive)
GI50 (MDA-MB-435): > 100 µM (inactive)
GI50 (MDA-N): > 100 µM (inactive)
GI50 (MOLT-4): 11.6 µM (inactive)
GI50 (Malme-3M): 7.13 µM (inactive)
GI50 (NCI-H226): 55.2 µM (inactive)
GI50 (NCI-H23): > 100 µM (inactive)
GI50 (NCI-H460): > 100 µM (inactive)
GI50 (NCI/ADR-RES): 39.6 µM (inactive)
GI50 (OVCAR-3): > 100 µM (inactive)
GI50 (OVCAR-4): 5.6 µM (inactive)
GI50 (OVCAR-5): 79.8 µM (inactive)
GI50 (OVCAR-8): 18.1 µM (inactive)
GI50 (PC-3): > 100 µM (inactive)
GI50 (RPMI-8226): 69.7 µM (inactive)
GI50 (RXF 393): > 100 µM (inactive)
GI50 (SF-268): 9.91 µM (inactive)
GI50 (SF-295): 25.5 µM (inactive)
GI50 (SF-539): 17.3 µM (inactive)
GI50 (SK-MEL-28): > 100 µM (inactive)
GI50 (SK-MEL-2): > 100 µM (inactive)
GI50 (SK-MEL-5): 6.37 µM (inactive)
GI50 (SK-OV-3): 18.1 µM (inactive)
GI50 (SN12C): > 100 µM (inactive)
GI50 (SNB-19): > 100 µM (inactive)
GI50 (SR): 13 µM (inactive)
GI50 (TK-10): > 100 µM (inactive)
GI50 (U-251): > 100 µM (inactive)
GI50 (UACC-257): > 100 µM (inactive)
GI50 (UACC-62): 65.6 µM (inactive)
GI50 (UO-31): > 100 µM (inactive)

COc1cccc(/C=C2\CCCCCC2=O)c1
GI50 (786-0): > 100 µM (inactive)
GI50 (A498): > 100 µM (inactive)
GI50 (A549): > 100 µM (inactive)
GI50 (ACHN): > 100 µM (inactive)
GI50 (BT-549): > 100 µM (inactive)
GI50 (CAKI-1): > 100 µM (inactive)
GI50 (COLO 205): > 100 µM (inactive)
GI50 (DU-145): > 100 µM (inactive)
GI50 (EKVX): > 100 µM (inactive)
GI50 (HCC 2998): > 100 µM (inactive)
GI50 (HCT-116): 80.7 µM (inactive)
GI50 (HCT-15): > 100 µM
GI50 (HOP-62): > 100 µM (inactive)
GI50 (HOP-92): > 100 µM (inactive)
GI50 (HT-29): > 100 µM (inactive)
GI50 (Hs-578T): > 100 µM (inactive)
GI50 (IGROV-1): > 100 µM (inactive)
GI50 (K562): 72.3 µM (inactive)
GI50 (KM12): 65.5 µM (inactive)
GI50 (LOX IMVI): > 100 µM (inactive)
GI50 (M14): > 100 µM (inactive)
GI50 (MDA-MB-231): > 100 µM (inactive)
GI50 (MDA-MB-435): 48.1 µM (inactive)
GI50 (MDA-N): > 100 µM (inactive)
GI50 (MOLT-4): 71.9 µM (inactive)
GI50 (Malme-3M): > 100 µM (inactive)
GI50 (NCI-H226): > 100 µM (inactive)
GI50 (NCI-H23): > 100 µM (inactive)
GI50 (NCI-H460): 52 µM (inactive)
GI50 (NCI-H522): > 100 µM (inactive)
GI50 (OVCAR-3): > 100 µM (inactive)
GI50 (OVCAR-4): > 100 µM (inactive)
GI50 (OVCAR-5): > 100 µM (inactive)
GI50 (PC-3): > 100 µM (inactive)
GI50 (RPMI-8226): 31 µM (inactive)
GI50 (SF-268): > 100 µM (inactive)
GI50 (SF-295): > 100 µM (inactive)
GI50 (SK-MEL-28): > 100 µM (inactive)
GI50 (SK-MEL-2): > 100 µM (inactive)
GI50 (SK-MEL-5): 70.1 µM (inactive)
GI50 (SK-OV-3): > 100 µM (inactive)
GI50 (SN12C): > 100 µM (inactive)
GI50 (SNB-19): 19.7 µM (inactive)
GI50 (SNB-75): 62.5 µM (inactive)
GI50 (SR): 26.7 µM (inactive)
GI50 (SW-620): > 100 µM (inactive)
GI50 (T47D): > 100 µM (inactive)
GI50 (TK-10): > 100 µM (inactive)
GI50 (U-251): 65.3 µM (inactive)
GI50 (UACC-257): > 100 µM (inactive)
GI50 (UACC-62): > 100 µM (inactive)
GI50 (UO-31): 81.5 µM (inactive)

COc1cccc(N2CCc3c(C)c(C#N)c4nc5ccccc5n4c32)c1
GI50 (786-0): 58.3 µM (inactive)
GI50 (A498): > 100 µM (inactive)
GI50 (A549): > 100 µM (inactive)
GI50 (ACHN): > 100 µM (inactive)
GI50 (BT-549): > 100 µM (inactive)
GI50 (CCRF-CEM): > 100 µM (inactive)
GI50 (COLO 205): > 100 µM (inactive)
GI50 (DU-145): > 100 µM (inactive)
GI50 (HCC 2998): > 100 µM (inactive)
GI50 (HCT-116): > 100 µM (inactive)
GI50 (HCT-15): > 100 µM
GI50 (HL-60): > 100 µM (inactive)
GI50 (HOP-62): > 100 µM (inactive)
GI50 (HOP-92): 22.1 µM (inactive)
GI50 (HT-29): > 100 µM (inactive)
GI50 (Hs-578T): 16.2 µM (inactive)
GI50 (IGROV-1): > 100 µM (inactive)
GI50 (K562): > 100 µM (inactive)
GI50 (LOX IMVI): > 100 µM (inactive)
GI50 (M14): > 100 µM (inactive)
GI50 (MCF7): > 100 µM (inactive)
GI50 (MDA-MB-231): 12.2 µM (inactive)
GI50 (MDA-MB-435): > 100 µM (inactive)
GI50 (MDA-N): > 100 µM (inactive)
GI50 (Malme-3M): > 100 µM (inactive)
GI50 (NCI-H226): > 100 µM (inactive)
GI50 (NCI-H23): > 100 µM (inactive)
GI50 (NCI-H460): > 100 µM (inactive)
GI50 (NCI-H522): 15.3 µM (inactive)
GI50 (NCI/ADR-RES): > 100 µM (inactive)
GI50 (OVCAR-3): > 100 µM (inactive)
GI50 (OVCAR-4): > 100 µM (inactive)
GI50 (OVCAR-5): > 100 µM (inactive)
GI50 (OVCAR-8): 41.4 µM (inactive)
GI50 (PC-3): > 100 µM (inactive)
GI50 (RXF 393): 45.1 µM (inactive)
GI50 (SF-268): 43.7 µM (inactive)
GI50 (SF-295): > 100 µM (inactive)
GI50 (SF-539): 45.7 µM (inactive)
GI50 (SK-MEL-28): > 100 µM (inactive)
GI50 (SK-MEL-2): 94.8 µM (inactive)
GI50 (SK-MEL-5): > 100 µM (inactive)
GI50 (SK-OV-3): 48.1 µM (inactive)
GI50 (SN12C): > 100 µM (inactive)
GI50 (SNB-19): 39.3 µM (inactive)
GI50 (SNB-75): 41.5 µM (inactive)
GI50 (SW-620): > 100 µM (inactive)
GI50 (TK-10): > 100 µM (inactive)
GI50 (U-251): 53.6 µM (inactive)
GI50 (UACC-257): > 100 µM (inactive)
GI50 (UACC-62): > 100 µM (inactive)
GI50 (UO-31): > 100 µM (inactive)
